# From patent US20200392116A1, “SUBSTITUTED HETEROCYCLES AS c-MYC TARGETING AGENTS” (NORTHWESTERN UNIVERSITY, priority 2019, published 2020)
# Read-outs that look alike come from different tables or passages of the source.
# How the values were obtained:
# [1] = test system: MYC transcriptional activity (c-Myc E-box-luciferase reporter, MycCap cells); assay: MYC E-box luciferase reporter assay; assay type: cell-based; conditions: Mus musculus, Myc-CaP
# Procedure: To test the compounds, we evaluated the in silico hits in a MYC E-Box luciferase reporter assay to measure the effects of these compounds (referred to as Min-1 to Min-32) on MYC transcriptional activity. […] (See FIG. 2).
# MycCap cells stably expressing luciferase with CMV promoter (MycCap-luc) or c-Myc E-box-luciferase reporter (MycCap Ebox-luc) were plated at 10000 cells per well in 96 well white-wall plate. Serial dilutions of 361 were treated next day. At 4 hours of treatment, luminescence signal was determined immediately after adding 150 μg/ml of Luciferin to the well. (See FIG. 12).
# [2] = test system: CMV reporter; assay: CMV reporter assay (control reporter beside the Ebox reporter); assay type: cell-based
# [3] = Potency code of Table 2 (assay not stated)
# [4] = given as numeric bound, read-out: Ebox reporter: IC50
# [5] = class symbols, read-out: Ebox reporter: IC50
# [6] = class symbols, read-out: Eboc reporter IC50
SMILES,IC50 [2],Potency code [3],further results
Cn1nc(-c2ccc(OC3CCOCC3)c(-c3ccc(Cl)c(C(F)(F)F)c3)c2O)cc1C(F)(F)F [NUCC-0202428],> 50 µM,–,"IC50 [1, 4]: > 50 µM"
O=c1cc(C(F)(F)F)oc2cc(NCc3ccc(Cl)cc3)ccc12 [NUCC-0202436],> 50 µM,–,"IC50 [1, 5]: 10 to 50 µM"
Cn1nc(C(F)(F)F)cc1-c1ccc(OCc2ccc(Cl)cc2)c(-c2ccc(Cl)c(C(F)(F)F)c2)n1 [NUCC-0202640],> 50 µM,–,"IC50 [1, 4]: > 50 µM"
COc1ccc(C(=O)N(Cc2ccc(Cl)cc2)c2ccc(-c3cc(C(F)(F)F)n(C)n3)c(O)c2)cc1 [NUCC-0202718],> 50 µM,–,"IC50 [1, 4]: > 50 µM"
Cn1nc(C(F)(F)F)cc1-c1ccc(N(Cc2ccc(Cl)cc2)C(=O)c2ccc(C(F)(F)F)cc2Cl)cc1O [NUCC-0202720],> 50 µM,–,"IC50 [1, 5]: 5 to 10 µM"
Cn1nc(-c2ccc(CNc3ccc(Cl)cc3)c(-c3ccc(Cl)c(C(F)(F)F)c3)c2O)cc1C(F)(F)F [NUCC-0202417],> 50 µM,–,"IC50 [1, 4]: > 50 µM"
Cn1nc(-c2ccc(N(Cc3ccc(Cl)cc3)C(=O)c3cccc(S(C)(=O)=O)c3)cc2O)cc1C(F)(F)F [NUCC-0202721],> 50 µM,–,"IC50 [1, 4]: > 50 µM"
Cn1nc(-c2ccc(N(Cc3ccc(Cl)cc3)C(=O)c3ccc(C(F)(F)F)c(Cl)c3)cc2O)cc1C(F)(F)F [NUCC-0202424],> 50 µM,–,"IC50 [1, 4]: > 50 µM"
Cn1nc(-c2c(Cl)cc(OCc3ccc(Cl)cc3)c(-c3ccc(Cl)c(C(F)(F)F)c3)c2O)cc1C(F)(F)F [NUCC-0202988],–,–,"IC50 [1, 6]: > 50 µM; IC50 ([2]; class symbols): > 50 µM"
Cn1nc(C(F)(F)F)cc1-c1ccc(N(Cc2ccc(Cl)cc2)C(=O)c2cccc(Cl)c2)cc1O [NUCC-0202704],> 50 µM,–,"IC50 [1, 5]: < 5 µM"
Cn1nc(-c2ccc(N(Cc3ccc(Cl)cc3)C(=O)c3cncc(C(F)(F)F)c3)cc2O)cc1C(F)(F)F [NUCC-0202689],> 50 µM,–,"IC50 [1, 4]: > 50 µM"
Cn1nc(C(F)(F)F)cc1-c1ccc(OCc2ccc(Cl)cc2)c(-c2ccc(Cl)c(C(F)(F)F)c2)c1Cl [NUCC-0202650],> 50 µM,–,"IC50 [1, 4]: > 50 µM"
Cn1nc(O)cc1-c1ccc(OCc2ccc(Cl)cc2)c(-c2ccc(Cl)c(C(F)(F)F)c2)c1O [NUCC-0202638],> 50 µM,–,"IC50 [1, 5]: 10 to 50 µM"
Cn1nc(C(F)(F)F)cc1-c1ccc(CNc2ccc(Cl)c(C(F)(F)F)c2)cc1O [NUCC-0202980],–,–,"IC50 [1, 6]: 10 to 50 µM; IC50 ([2]; class symbols): 10 to 50 µM"
Cn1nc(C(F)(F)F)c(Oc2ccc(Cl)c(F)c2)c1-c1ccc(OCc2ccc(Cl)cc2)cc1O [NUCC-0202537],40 µM,–,"IC50 [1, 5]: 5 to 10 µM"
Cn1nc(-c2ccc(OCc3ccc(Cl)cc3)c(Oc3ccc(F)cn3)c2O)cc1C(F)(F)F [NUCC-0202422],> 50 µM,–,"IC50 [1, 4]: > 50 µM"
Cn1nc(C(F)(F)F)cc1-c1ccc(N(Cc2ccc(Cl)cc2)C(=O)c2ccc(F)c(F)c2)cc1O [NUCC-0202706],> 50 µM,–,"IC50 [1, 5]: < 5 µM"
COc1ccc(C(=O)N(Cc2ccc(Cl)cc2)c2ccc(-c3cc(C(F)(F)F)nn3C)c(O)c2)cc1 [NUCC-0202717],> 50 µM,–,"IC50 [1, 5]: 5 to 10 µM"
Cn1nc(C(F)(F)F)cc1-c1ccc(N(Cc2ccc(Cl)cc2)C(=O)c2ccnc(C(F)(F)F)c2)cc1O [NUCC-0202700],> 50 µM,–,"IC50 [1, 5]: < 5 µM"
COc1c(-c2ccc(OCc3ccc(Cl)cc3)cc2O)nn(C)c1C(F)(F)F [NUCC-0202652],> 50 µM,–,"IC50 [1, 4]: > 50 µM"

SMILES,IC50 [2],Potency code [3],further results
CC(Oc1ccc(-c2cc(C(F)(F)F)n(C)n2)c(O)c1-c1ccc(Cl)c(C(F)(F)F)c1)c1ccc(Cl)cc1 (stereo not shown) [NUCC-0202437],> 50 µM,–,"IC50 [1, 4]: > 50 µM"
Cn1nc(C(F)(F)F)cc1-c1ccc(OCc2ccc(Cl)cc2)c(-c2ccc(Cl)c(C(F)(F)F)c2)c1F [NUCC-0202641],> 50 µM,–,"IC50 [1, 4]: > 50 µM"
CN(C(=O)c1ccc(-c2cc(C(F)(F)F)n[nH]2)c(O)c1)c1ccc(Cl)c(C(F)(F)F)c1 [NUCC-0202989],–,–,"IC50 [1, 6]: 10 to 50 µM; IC50 ([2]; class symbols): 10 to 50 µM"
O=C(Nc1ccc(Cl)c(C(F)(F)F)c1)c1ccc(-c2cc(C(F)(F)F)n[nH]2)c(O)c1 [NUCC-0202992],–,–,"IC50 [1, 6]: 5 to 10 µM; IC50 ([2]; class symbols): 10 to 50 µM"
Cn1nc(-c2ccc(N(Cc3ccc(Cl)cc3)C(=O)c3cccc(Cl)c3)cc2O)cc1C(F)(F)F [NUCC-0202699],> 50 µM,–,"IC50 [1, 4]: > 50 µM"
COc1c(C(F)(F)F)n[nH]c1-c1ccc(OCc2ccc(Cl)cc2)cc1O [NUCC-0202639],32 µM,–,"IC50 [1, 5]: 5 to 10 µM"
Cn1nc(-c2ccc(C(=O)Nc3ccc(Cl)c(C(F)(F)F)c3)cc2O)cc1C(F)(F)F [NUCC-0202985],–,–,"IC50 [1, 6]: > 50 µM; IC50 ([2]; class symbols): > 50 µM"
Cn1nc(C(F)(F)F)cc1-c1ccc(N(Cc2ccc(Cl)cc2)C(=O)c2cccc(S(C)(=O)=O)c2)cc1O [NUCC-0202705],> 50 µM,–,"IC50 [1, 5]: < 5 µM"
Cn1nc(-c2cc(Cl)c(OCc3ccc(Cl)cc3)c(-c3ccc(Cl)c(C(F)(F)F)c3)c2O)cc1C(F)(F)F [NUCC-0202642],> 50 µM,–,"IC50 [1, 4]: > 50 µM"
CN(C(=O)c1ccc(-c2cc(C(F)(F)F)n(C)n2)c(O)c1)c1ccc(Cl)c(C(F)(F)F)c1 [NUCC-0202991],–,–,"IC50 [1, 6]: 10 to 50 µM; IC50 ([2]; class symbols): > 50 µM"
Cn1nc(C(F)(F)F)cc1-c1ccc(COc2ccc(Cl)cc2)c(-c2ccc(Cl)c(C(F)(F)F)c2)c1O [NUCC-0202416],> 50 µM,–,"IC50 [1, 5]: < 5 µM"
Cn1nc(C(F)(F)F)cc1-c1ccc(N(Cc2ccc(Cl)cc2)C(=O)c2ccccc2C(F)(F)F)cc1O [NUCC-0202723],> 50 µM,–,"IC50 [1, 5]: 5 to 10 µM"
Cn1nc(C(F)(F)F)cc1-c1ccc(N(Cc2ccc(Cl)cc2)C(=O)c2ccc(Cl)cc2)cc1O [NUCC-0202703],> 50 µM,–,"IC50 [1, 5]: < 5 µM"
Oc1cc(OCc2ccc(Cl)cc2)ccc1-c1[nH]nc(C(F)(F)F)c1Oc1ccc(F)c(Cl)c1 [NUCC-0202636],41 µM,–,"IC50 [1, 5]: 5 to 10 µM"
Cn1nc(-c2ccc(N(Cc3ccc(Cl)cc3)C(=O)c3ccc(C(F)(F)F)cc3)cc2O)cc1C(F)(F)F [NUCC-0202714],> 50 µM,–,"IC50 [1, 4]: > 50 µM"
Cn1nc(-c2ccc(N(Cc3ccc(Cl)cc3)C(=O)c3ccc(C(F)(F)F)cc3Cl)cc2O)cc1C(F)(F)F [NUCC-0202708],> 50 µM,–,"IC50 [1, 4]: > 50 µM"
CN(C)C(=O)c1cc(-c2ccc(OCc3ccc(Cl)cc3)c(-c3ccc(Cl)c(C(F)(F)F)c3)c2O)n(C)n1 [NUCC-0202527],> 50 µM,–,"IC50 [1, 5]: 10 to 50 µM"
CNC(=O)c1cc(-c2ccc(OCc3ccc(Cl)cc3)c(-c3ccc(Cl)c(C(F)(F)F)c3)c2O)nn1C [NUCC-0202529],> 50 µM,–,"IC50 [1, 5]: 10 to 50 µM"
Cn1nc(-c2ccc(N(Cc3ccc(Cl)cc3)C(=O)c3ccnc(C(F)(F)F)c3)cc2O)cc1C(F)(F)F [NUCC-0202696],> 50 µM,–,"IC50 [1, 4]: > 50 µM"
CC(C)CCOc1ccc(-c2cc(C(F)(F)F)nn2C)c(O)c1-c1cncc(C#N)c1 [NUCC-0201208],–,++++ (<10 ++++),–

SMILES,IC50 [2],Potency code [3],further results
CCc1ccc(Oc2c[nH]nc2-c2ccc(OCc3ccc(C(F)(F)F)cc3)cc2O)cc1 [NUCC-0176244],–,+ (>40 +),–
Cc1ccc(-c2c(OCc3ccc(Cl)cc3)ccc(-c3cc(C(F)(F)F)[nH]n3)c2O)cc1 [NUCC-0196344],–,+++ (10-30 +++),–
Nc1ccc(-c2cc(C(F)(F)F)[nH]n2)c(O)c1 [NUCC-0200497],–,+ (>40 +),–
CCc1ccc(Oc2c[nH]nc2-c2ccc(OCCc3ccc(Cl)cc3)cc2O)cc1 [NUCC-0176261],–,+ (>40 +),–
NC(=O)c1ccc(-c2c(OCc3ccc(Cl)cc3)ccc(-c3cc(C(F)(F)F)[nH]n3)c2O)cc1 [NUCC-0198394],–,++ (30-40 ++),–
Oc1ccc(-c2cc(C(F)(F)F)[nH]n2)c(O)c1-c1cc(C(F)(F)F)cc(C(F)(F)F)c1 [NUCC-0200495],–,++++ (<10 ++++),–
Cc1cc(C)c(-c2cn(C)nc2-c2ccc(OCc3ccc(Cl)cc3)cc2O)c(C)c1 [NUCC-0198360],–,+ (>40 +),–
Cc1ccc(C)c(Oc2c[nH]nc2-c2ccc(OCc3ccc(Cl)cc3)cc2O)c1 [NUCC-0196284],–,+ (>40 +),–
Cn1nc(C(F)(F)F)cc1-c1cnc(OCc2ccc(Cl)cc2)cn1 [NUCC-0200692],–,+ (>40 +),–
Oc1c(-c2cc(C(F)(F)F)[nH]n2)ccc(OCc2ccc(Cl)cc2)c1-c1ccc(F)cc1 [NUCC-0196347],–,+ (>40 +),–
Cn1nc(-c2ccc(OCCCNC(=O)OC(C)(C)C)c(-c3cncc(C(F)(F)F)c3)c2O)cc1C(F)(F)F [NUCC-0201656],–,+ (>40 +),–
Cn1cc(-c2ccoc2)c(-c2ccc(OCc3ccc(Cl)cc3)cc2O)n1 [NUCC-0198324],–,+ (>40 +),–
Oc1c(-c2cc(C(F)(F)F)[nH]n2)ccc(OCc2ccc(Cl)cc2)c1-c1ccc(F)c(C(F)(F)F)c1 [NUCC-0200734],–,+ (>40 +),–
CC(C)CCOc1ccc(-c2cc(C(F)(F)F)nn2C)c(O)c1-c1ccc(Cl)c(C(F)(F)F)c1 [NUCC-0201635],–,+ (>40 +),–
Oc1cc(OCc2ccc(Cl)cc2)ccc1-c1n[nH]cc1-c1cccnc1 [NUCC-0198320],–,+ (>40 +),–
COc1ccc(CCOc2ccc(-c3cc(C(F)(F)F)n[nH]3)c(O)c2-c2cc(C(F)(F)F)cc(C(F)(F)F)c2)cc1 [NUCC-0201027],–,+++ (10-30 +++),–
O=C(O)c1cc(-c2ccc(OCc3ccc(Cl)cc3)c(-c3cc(C(F)(F)F)cc(C(F)(F)F)c3)c2O)n[nH]1 [NUCC-0200973],–,++++ (<10 ++++),–
CCCCOc1ccc(-c2cc(C(F)(F)F)n[nH]2)c(O)c1-c1cncc(C#N)c1 [NUCC-0201193],–,++++ (<10 ++++),–
